The results in this text go back to ChEMBL document CHEMBL1201862, “PubChem BioAssay data set” (2004).

Molecules are shown by their SMILES.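 Grown in 96-well plates, cells were treated for 48 hours with each compound at five concentrations. Insufficient inhibition: endpoint recorded as highest concentration tested. GI50: concentration for 50% inhibition of growth.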 Active and inactive are the calls of the source. Rule as the data show it: active = GI50 up to about 1.1 µM and inactive = higher. A value given as a limit tells only on which side of the number the result lay.

Test systems include HCT-116; HL-60; RXF 393; 786-0; IGROV-1; NCI-H226; NCI-H23; CCRF-CEM; OVCAR-8; OVCAR-3; SK-MEL-28; SK-MEL-5; K562; SNB-19; MOLT-4; CAKI-1; HT-29; SF-295; OVCAR-4; SR.
Assay in all cases: NCI anticancer screen, dose series, 48 h

With `COc1ccc(Nc2c[nH]c(=O)[nH]c2=O)cc1`, the GI50 in the experiment on HCT-116, in the experiment on HL-60, in the experiment with RXF 393, with 786-0, in the experiment on IGROV-1 and with NCI-H226 was > 100 µM (inactive) in each case. The GI50 with NCI-H23, in the experiment with CCRF-CEM, in the experiment with OVCAR-8, with OVCAR-3, with SK-MEL-28 and in the experiment on SK-MEL-5 was > 100 µM (inactive) each time. The GI50 with K562, in the experiment on SNB-19, in the experiment on MOLT-4, in the experiment on CAKI-1, in the experiment with HT-29 and in the experiment with SF-295 was > 100 µM (inactive) throughout. Further, the GI50 in the experiment with OVCAR-4 is > 100 µM (inactive).
As to `CC1(C)CC(=O)c2c(nc(SSc3nc4c(c(-c5ccccc5)c3C#N)C(=O)CC(C)(C)C4)c(C#N)c2-c2ccccc2)C1`, the GI50 in the experiment on HCT-116, in the experiment on HL-60, with RXF 393, in the experiment on 786-0, in the experiment with IGROV-1 and in the experiment with NCI-H226 was > 10 µM (inactive) throughout. The GI50 in the experiment on NCI-H23, in the experiment with CCRF-CEM, with OVCAR-8, in the experiment on OVCAR-3, in the experiment with SK-MEL-28 and in the experiment on SK-MEL-5 was > 10 µM (inactive) throughout. Further, the GI50 with K562, with SNB-19, in the experiment on MOLT-4, in the experiment with CAKI-1, in the experiment on HT-29 and with SF-295 was > 10 µM (inactive) in each case. In the experiment with OVCAR-4, the GI50 is > 10 µM (inactive).
On to `Cc1c2c(OCCCCN3CCN(c4ncccn4)CC3)nn(C)c(=O)c2c(C)n1-c1ccccc1`, for which the GI50 with HCT-116 is 16.9 µM (inactive); in the experiment on HL-60 it was 21.1 µM (inactive); with RXF 393 it was 18.6 µM (inactive); in the experiment on 786-0, 18.1 µM (inactive); in the experiment with IGROV-1, 17.8 µM (inactive); in the experiment with NCI-H226, 20.7 µM (inactive). For the same molecule, the GI50 in the experiment on NCI-H23 was 19.1 µM (inactive); with CCRF-CEM, 31.1 µM (inactive); with OVCAR-8, 24.7 µM (inactive); in the experiment with OVCAR-3 it was 19.5 µM (inactive); with SK-MEL-28, 18.4 µM (inactive); with SK-MEL-5, 13.8 µM (inactive). Further, the GI50 with K562 was 30.8 µM (inactive); in the experiment with SNB-19, 19 µM (inactive); in the experiment on MOLT-4, 26.8 µM (inactive); in the experiment with CAKI-1 it was 16.9 µM (inactive); in the experiment with HT-29, 24.8 µM (inactive); in the experiment with SF-295 it was 16.4 µM (inactive). In addition, the GI50 with OVCAR-4 is 19.5 µM (inactive).
Consider `CC(C)c1cccc(C(C)C)c1NC(=O)C(=O)Cc1nc2ccc([N+](=O)[O-])cc2nc1O`, for which the GI50 in the experiment on HCT-116 is 39.2 µM (inactive); with HL-60, > 100 µM (inactive); in the experiment with RXF 393, > 100 µM (inactive); in the experiment on 786-0 it was > 100 µM (inactive); in the experiment with IGROV-1 it was > 100 µM (inactive); in the experiment with NCI-H226, > 100 µM (inactive). Moreover, the GI50 is 31.9 µM (inactive) in the experiment with NCI-H23; 18.6 µM (inactive) in the experiment on CCRF-CEM; > 100 µM (inactive) with OVCAR-3; 86.1 µM (inactive) in the experiment on SK-MEL-28; > 10 µM (inactive) with SK-MEL-5; 30.2 µM (inactive) with K562. In addition, the GI50 was > 100 µM (inactive) in the experiment with SNB-19; 74.1 µM (inactive) in the experiment on MOLT-4; 75.3 µM (inactive) with CAKI-1; > 100 µM (inactive) in the experiment on HT-29; > 100 µM (inactive) in the experiment with SF-295; 64.3 µM (inactive) with OVCAR-4.
On to `N#Cc1c(-c2ccccc2)c(C#N)c(=O)n(NS(=O)(=O)c2ccccc2)c1O`, for which the GI50 in the experiment on HCT-116, with HL-60, with RXF 393, in the experiment with 786-0, with IGROV-1 and in the experiment on NCI-H226 was > 100 µM (inactive) in each case. Besides, the GI50 in the experiment with CCRF-CEM, with OVCAR-8, in the experiment on SK-MEL-28, in the experiment with SK-MEL-5, in the experiment on K562 and with SNB-19 was > 100 µM (inactive) in each case. In addition, the GI50 with MOLT-4, in the experiment with CAKI-1, with HT-29, with SF-295 and with OVCAR-4 was > 100 µM (inactive) each time.
For `CC1CN=C(Nc2ccc(S(N)(=O)=O)cc2)S1` (centres undefined), the GI50 in the experiment with HCT-116, in the experiment on HL-60, in the experiment on SR, in the experiment with 786-0, in the experiment on IGROV-1 and in the experiment on NCI-H23 was > 100 µM (inactive) each time. Moreover, the GI50 with CCRF-CEM, in the experiment with OVCAR-8, in the experiment with OVCAR-3, in the experiment on SK-MEL-28, with SK-MEL-5 and in the experiment with K562 was > 100 µM (inactive) in each case. Besides, the GI50 in the experiment with SNB-19, with MOLT-4, in the experiment with CAKI-1, with HT-29, in the experiment on SF-295 and in the experiment with OVCAR-4 was > 100 µM (inactive) in each case.
As for `Cc1ccc(N(C(=O)Nc2ccc(F)c(Cl)c2)C2=NCC(C)S2)cc1` (centres undefined), the GI50 in the experiment on HCT-116 was 38.6 µM (inactive); in the experiment on HL-60, 23.8 µM (inactive); in the experiment on SR it was 40.2 µM (inactive); in the experiment with 786-0, 57.8 µM (inactive); with IGROV-1 it was > 100 µM (inactive); with NCI-H23 it was 28.6 µM (inactive). Moreover, the GI50 was 42.2 µM (inactive) in the experiment with CCRF-CEM; 48.2 µM (inactive) in the experiment on OVCAR-8; 45.3 µM (inactive) with OVCAR-3; 19.9 µM (inactive) in the experiment on SK-MEL-28; 18.7 µM (inactive) with SK-MEL-5; 43.9 µM (inactive) in the experiment on K562. Further, the GI50 was > 100 µM (inactive) in the experiment with SNB-19; 31.6 µM (inactive) in the experiment with MOLT-4; 22.2 µM (inactive) with CAKI-1; 36 µM (inactive) with HT-29; 49.3 µM (inactive) with SF-295; 38.7 µM (inactive) in the experiment on OVCAR-4.
For the molecule `COC(=O)/C=c1/c2ccccc2n2c1c1ccccc1[n+]2C`, the GI50 is 3.31 µM (inactive) with HCT-116; 2.84 µM (inactive) in the experiment with HL-60; 4.54 µM (inactive) in the experiment with RXF 393; 2.99 µM (inactive) in the experiment on 786-0; 3.56 µM (inactive) with IGROV-1; 5.52 µM (inactive) with NCI-H226. In addition, the GI50 in the experiment with NCI-H23 was 3.29 µM (inactive); with CCRF-CEM, 3.3 µM (inactive); in the experiment on OVCAR-8 it was 3.33 µM (inactive); with OVCAR-3 it was 3.55 µM (inactive); with SK-MEL-28, 5.82 µM (inactive); with SK-MEL-5, 2.81 µM (inactive). Also, the GI50 with K562 is 3.64 µM (inactive); with SNB-19, 4.88 µM (inactive); in the experiment on MOLT-4 it was 4.27 µM (inactive); with CAKI-1, 15.1 µM (inactive); in the experiment on HT-29, 3.79 µM (inactive); with SF-295 it was 2.69 µM (inactive). For the same molecule, the GI50 in the experiment with OVCAR-4 was 4.11 µM (inactive).
For the molecule `Cc1ccc(/C=C2\CCCC(CN(C)C)C2=O)cc1` (centres undefined), the GI50 in the experiment with HCT-116 was 1.69 µM (inactive); with HL-60 it was 0.841 µM (active); in the experiment on RXF 393 it was 1.79 µM (inactive); with 786-0, 1.63 µM (inactive); with IGROV-1 it was 1.96 µM (inactive); in the experiment on NCI-H226 it was 2.56 µM (inactive). The GI50 in the experiment with NCI-H23 is 2.24 µM (inactive); in the experiment with CCRF-CEM, 1.26 µM (inactive); in the experiment on OVCAR-8 it was 3.04 µM (inactive); with OVCAR-3 it was 1.76 µM (inactive); with SK-MEL-28, 1.95 µM (inactive); in the experiment on SK-MEL-5, 3.51 µM (inactive). In addition, the GI50 with K562 is 1.66 µM (inactive); in the experiment with SNB-19, 16.4 µM (inactive); in the experiment with MOLT-4, 2.28 µM (inactive); in the experiment with CAKI-1, 1.55 µM (inactive); in the experiment on HT-29 it was 1.69 µM (inactive); in the experiment on SF-295, 17.4 µM (inactive). Further, the GI50 in the experiment on OVCAR-4 is 2.02 µM (inactive).
For `CC(=O)NNc1nc(C)c(C(=O)/C=C/c2ccccc2Cl)s1`, the GI50 in the experiment with HL-60, with RXF 393, in the experiment on 786-0, in the experiment with IGROV-1, with NCI-H226 and in the experiment with NCI-H23 was > 100 µM (inactive) each time. In addition, the GI50 with CCRF-CEM, in the experiment with OVCAR-8, with OVCAR-3, in the experiment on SK-MEL-28, in the experiment with SK-MEL-5 and with K562 was > 100 µM (inactive) each time. Moreover, the GI50 with SNB-19, with MOLT-4, in the experiment on CAKI-1, with HT-29 and with SF-295 was > 100 µM (inactive) throughout.
`O=C(CC1C(=O)Nc2ccccc2[S+]1[O-])Nc1ccc(Cl)cc1` (centres undefined): the GI50 was 46.9 µM (inactive) in the experiment with HL-60; 32.4 µM (inactive) with SR; 39 µM (inactive) in the experiment with 786-0; 41.3 µM (inactive) with IGROV-1; > 100 µM (inactive) in the experiment with NCI-H226; 35.2 µM (inactive) in the experiment on NCI-H23. Moreover, the GI50 in the experiment on OVCAR-8 is 32.7 µM (inactive); in the experiment with OVCAR-3, > 100 µM (inactive); in the experiment with SK-MEL-28 it was > 100 µM (inactive); in the experiment on K562 it was > 100 µM (inactive); with SNB-19, 93.3 µM (inactive); in the experiment with MOLT-4, 50.2 µM (inactive). Further, the GI50 in the experiment on CAKI-1 is > 100 µM (inactive); in the experiment with HT-29, > 100 µM (inactive); in the experiment on SF-295 it was > 100 µM (inactive); with OVCAR-4 it was 49 µM (inactive).
